Experimental data from patent US9474275B2, “Cyanoenamines and their use as fungicides” (priority 2010, dated 2016).
Like-named read-outs stand apart in the source and are kept apart here. Marks after values point to notes of the source that are not given here.

Tests used:
Phytophthora infestans = type: in vivo; conditions: tomato plants, preventive spray, 500 ppm of active ingredient, evaluated 7 days after inoculation; 0% = untreated control, 100% = no disease
Plasmopara viticola = assay: Plasmopara test (grapevines) / preventive; type: in vivo; conditions: grapevine plants, preventive spray, 100 ppm of active ingredient, evaluated 6 days after inoculation; 0% = untreated control, 100% = no disease
Description: Solvent: 24.5 parts by weight of acetone • 24.5 parts by weight of dimethylacetamide
Emulsifier: 1 part by weight of alkylaryl polyglycol ether
To produce a suitable preparation of active compound, 1 part by weight of active compound is mixed with the stated amounts of solvent and emulsifier, and the concentrate is diluted with water to the desired concentration. To test for preventive activity, young plants are sprayed with the preparation of active compound at the stated rate of application. After the spray coating has dried on, the plants are inoculated with an aqueous spore suspension of Plasmopara viticola and then remain for 1 day in an incubation cabinet at approximately 20° C. and a relative atmospheric humidity of 100%. The plant is subsequently placed for 4 days in a greenhouse at approximately 21° C. and a relative atmospheric humidity of approximately 90%. The plants are then misted and placed for 1 day in an incubation cabinet. The test is evaluated 6 days after the inoculation. 0% means an efficacy which corresponds to that of the untreated control, while an efficacy of 100% means that no disease is observed.

[1] = method [a]: LC-MS at pH 2.7, 0.1% formic acid in water / acetonitrile, linear gradient 10% to 95% acetonitrile
Description: Measurement of log P values was performed according EEC directive 79/831 Annex V.A8 by HPLC (High Performance Liquid Chromatography) on reversed phase columns with the following methods:
^[a] measurement of LC-MS was done at pH 2.7 with 0.1% formic acid in water and with acetonitrile (contains 0.1% formic acid) as eluent with a linear gradient from 10% acetonitrile to 95% acetonitrile.

| SMILES | efficacy (Phytophthora infestans) [%] | efficacy (Plasmopara viticola) [%] | LogP (pH 2.7) | LogP (pH 7.5) | LogP [1] |
| --- | --- | --- | --- | --- | --- |
| CC(NC(=C(C#N)C(=O)CC1CC1)c1cccnc1Cl)C1(Cl)CC1 (racemic) [Compound 27] | 93 | 95 | 3.39^[a] | – | – |
| CCCC(=O)C(C#N)=C(NC(C)c1ncc(C)s1)c1cccnc1Cl (racemic) [Compound 107] | 95 | 100 | 3.19^[a] | – | – |
| COCC(C)NC(=C(C#N)C(=O)CC1CC1)c1cn(C)nc1C(F)F (stereo not shown) [Compound 2] | 100 | 94 | 2.54^[a] | – | – |
| CC(C)C(C)NC(=C(C#N)C(=O)CC1CC1)c1cn(C)nc1C(F)F (stereo not shown) [Compound 4] | 95 | 94 | 3.27^[a] | – | – |
| CCC(=O)C(C#N)=C(NC(C)C(C)C)c1cccnc1Cl (stereo not shown) [Compound 5] | 100 | 93 | 3.11^[a] | 3.09^[b] | – |
| CC(C)C(C)NC(=C(C#N)C(=O)C1(F)CC1)c1cccnc1Cl (stereo not shown) [Compound 10] | 95 | – | – | – | 3.29^[a] |
| CC(C)C(C)NC(=C(C#N)C(=O)CC1CC1)c1cccnc1Cl (stereo not shown) [Compound 11] | 100 | 82 | 3.55^[a] | – | – |
| CCCCC(=O)C(C#N)=C(NC(C)C(C)C)c1cccnc1Cl (stereo not shown) [Compound 16] | 95 | – | – | – | 4.06^[a] |
| COCC(=O)C(C#N)=C(NC(C)C1CC1)c1cn(C)nc1C(F)F (stereo not shown) [Compound 17] | 100 | – | – | – | 2.15^[a] |
| CCCC(=O)C(C#N)=C(NC(C)C1CC1)c1cn(C)nc1C(F)F (stereo not shown) [Compound 18] | 95 | 91 | 3.08^[a] | – | – |
| CCCC(=O)C(C#N)=C(NC(C)C(C)C)c1cccnc1Cl (stereo not shown) [Compound 20] | 100 | 87 | 3.69^[a] | – | – |
| CCC(=O)C(C#N)=C(NC(C)C(C)C)c1cn(C)nc1C(F)F (stereo not shown) [Compound 23] | 93 | – | – | – | 2.92^[a] |
| CC(C)C(C)NC(=C(C#N)C(=O)c1ccsn1)c1cccnc1Cl (stereo not shown) [Compound 25] | 75 | – | – | – | 2.98^[a] |
| CCCC(=O)C(C#N)=C(NC(C)c1nccs1)c1cccnc1Cl (stereo not shown) [Compound 26] | 100 | – | – | – | 2.61^[a] |
| CC(C)C(C)NC(=C(C#N)C(=O)C1CCOC1)c1cccnc1Cl (stereo not shown) [Compound 28] | – | – | 2.70^[a] | – | – |
| CCCC(=O)C(C#N)=C(NC(C)COC)c1cn(C)nc1C(F)F (stereo not shown) [Compound 30] | 100 | 94 | 2.54^[a] | – | – |
| CCCC(=O)C(C#N)=C(NC(C)C1(Cl)CC1)c1cccnc1Cl (stereo not shown) [Compound 33] | 90 | 93 | 3.44^[a] | – | – |
| CC(C)C(C)NC(=C(C#N)C(=O)C1CCC1)c1cn(C)nc1C(F)F (stereo not shown) [Compound 34] | 90 | – | – | – | 3.46^[a] |
| COCC(=O)C(C#N)=C(NC(C)C1(Cl)CC1)c1cccnc1Cl (stereo not shown) [Compound 36] | 70 | – | – | – | 2.44^[a] |
| CC(C)CC(=O)C(C#N)=C(NC(C)C(C)C)c1cccnc1Cl (stereo not shown) [Compound 40] | 75 | – | – | – | 3.90^[a] |
| CC(C)C(C)NC(=C(C#N)C(=O)C1CCC1)c1cccnc1Cl (stereo not shown) [Compound 44] | 85 | – | – | – | 3.80^[a] |
| CCCCC(=O)C(C#N)=C(NC(C)C1(Cl)CC1)c1cccnc1Cl (stereo not shown) [Compound 47] | 75 | – | – | – | 2.33^[a] |
| CCCC(=O)C(C#N)=C(NC(C)C(C)C)c1cn(C)nc1C(F)F (stereo not shown) [Compound 51] | 95 | 100 | 3.29^[a] | – | – |
| CC(C)C(C)NC(=C(C#N)C(=O)C1CC1)c1cn(C)nc1C(F)F (stereo not shown) [Compound 52] | 75 | – | – | – | 3.11^[a] |
| COCC(=O)C(C#N)=C(NC(C)C(C)C)c1cn(C)nc1C(F)F (stereo not shown) [Compound 56] | 95 | 78 | 2.42^[a] | – | – |

| SMILES | efficacy (Phytophthora infestans) [%] | efficacy (Plasmopara viticola) [%] | LogP (pH 2.7) | LogP (pH 7.5) | LogP [1] |
| --- | --- | --- | --- | --- | --- |
| CC(NC(=C(C#N)C(=O)C1CC1)c1cn(C)nc1C(F)F)C1CC1 (stereo not shown) [Compound 59] | 90 | – | – | – | 2.90^[a] |
| COCCC(=O)C(C#N)=C(NC(C)C(C)C)c1cn(C)nc1C(F)F (stereo not shown) [Compound 62] | 75 | – | – | – | 2.64^[a] |
| CC(NC(=C(C#N)C(=O)CC1CC1)c1cn(C)nc1C(F)F)C1CC1 (stereo not shown) [Compound 64] | 98 | 94 | 3.04^[a] | – | – |
| CC(NC(=C(C#N)C(=O)C1CCC1)c1cn(C)nc1C(F)F)C1CC1 (stereo not shown) [Compound 70] | 80 | – | – | – | 3.25^[a] |
| CCC1CC1NC(=C(C#N)C(=O)CC1CC1)c1cccnc1Cl (stereo not shown) [Compound 72] | 100 | – | – | – | 3.46^[a] |
| C=CCCC(=O)C(C#N)=C(NC(C)C(C)C)c1cccnc1Cl (stereo not shown) [Compound 73] | 80 | – | – | – | 3.7^[a] |
| CC=CC(=O)C(C#N)=C(NC(C)C(C)C)c1cccnc1Cl (stereo not shown) [Compound 75] | 90 | 88 | 3.35^[a] | – | – |
| CCCC(=O)C(C#N)=C(NC(C)c1nccs1)c1cn(C)nc1C(F)F (stereo not shown) [Compound 80] | 95 | 94 | 2.59^[a] | – | – |
| CC(NC(=C(C#N)C(=O)CC1CC1)c1cn(C)nc1C(F)F)c1nccs1 (stereo not shown) [Compound 81] | 95 | 92 | 2.59^[a] | – | – |
| CCCC(=O)C(C#N)=C(NC(C)COC)c1cccnc1Cl (stereo not shown) [Compound 83] | 100 | 100 | – | – | – |
| CCCC(=O)C(C#N)=C(NC(C)C(C)(C)C)c1cn(C)nc1C(F)F (stereo not shown) [Compound 84] | 100 | 89 | 3.55^[a] | – | – |
| CCCC(=O)C(C#N)=C(NC(C)c1ccsn1)c1cccnc1Cl (stereo not shown) [Compound 85] | 97 | 87 | – | – | – |
| CCCC(=O)C(C#N)=C(NC(C)COCC)c1cccnc1Cl (stereo not shown) [Compound 86] | 97 | 90 | – | – | – |
| CCCC(=O)C(C#N)=C(NC(C)C(C)(C)C)c1cccnc1Cl (stereo not shown) [Compound 87] | 100 | 100 | – | – | – |
| CCCC(=O)C(C#N)=C(NC(C)c1ccsn1)c1cn(C)nc1C(F)F (stereo not shown) [Compound 88] | 97 | 100 | 2.73^[a] | – | – |
| CCCC(=O)C(C#N)=C(NC(C)C(C)C)c1ccc(Cl)nc1Cl (stereo not shown) [Compound 90] | 97 | 96 | 4.31^[a] | – | – |
| CCCC(=O)C(C#N)=C(NC(C)COC)c1cccnc1C (stereo not shown) [Compound 91] | 100 | – | – | – | 2.14^[a] |
| CCCC(=O)C(C#N)=C(NC(C)COC)c1ccnn1C(F)F (stereo not shown) [Compound 98] | 100 | 94 | 2.73^[a] | – | – |
| CCCC(=O)C(C#N)=C(NC1(CC2CC2)CC1)c1cccnc1Cl [Compound 101] | 95 | – | – | – | 3.79^[a] |
| CCCC(=O)C(C#N)=C(NC1CCC1)c1cccnc1Cl [Compound 102] | 80 | – | – | – | 3.13^[a] |
| CCCC(=O)C(C#N)=C(NC(C)c1c(F)cccc1F)c1cccnc1Cl (stereo not shown) [Compound 106] | 75 | – | – | – | 3.46^[a] |
| CCCC(=O)C(C#N)=C(NC(C)c1c(F)cccc1F)c1cn(C)nc1C(F)F (stereo not shown) [Compound 110] | 95 | – | – | – | 3.46^[a] |
| CCCC(=O)C(C#N)=C(NC1(CC2CC2)CC1)c1cn(C)nc1C(F)F [Compound 119] | 93 | – | – | – | 3.44^[a] |
| CCCC(=O)C(C#N)=C(NC1CCC1)c1cn(C)nc1C(F)F [Compound 120] | 90 | – | – | – | 2.88^[a] |
